Assay results from PMC8559926, “Design, synthesis and biological evaluation of N-oxide derivatives with potent in vivo antileishmanial activity” (PLoS ONE, 2021).
Several values for one entry are separate records, joined by “and”; a condition that tells them apart may be missing. Equal values may be shown once. Read-outs that look alike come from different tables or passages of the source.

Tests used:
[1] = Quantification of nitrite by the Griess reaction (NO release); conditions: compounds at 10^-4 M, 5 mM of L-Cys (1:50), 1 h, 37°C
Procedure: The levels of nitrite resulting from the oxidation of NO in the aqueous medium were quantified through the Griess reaction after incubation with an excess of L-cysteine (1:50) according to previously published methods. The experiments were performed in triplicate and repeated three times on different days. […] The results were expressed as a percentage of nitrite (% NO2^−; mol/mol). Statistical analysis was carried out using ANOVA followed by Tukey’s Multiple Comparison Test at a significance level of p < 0.05.
The ability of all synthesized compounds (4a-x) and (14a-g) to release NO was evaluated by indirect determination of NO2^− production. The compounds at 10^−4 M were incubated for 1 h at 37°C in the presence of L-cysteine (1:50) and the produced NO2^− was determined through Griess reaction (Table 1).

[2] = biological target: T1, recombinant Leishmania cysteine protease LmCPB2.8ΔCTE (CPB) (Leishmania mexicana, UniProt P36400); experiment: Enzymatic inhibition of recombinant CPB (Z-FR-AMC substrate); type: biochemical
T1 construct: The ORF that codes for the Leishmania mexicana CPB, lacking the C terminal extension (CPB2.8ΔCTE); made in house; host or cells: Pichia pastoris X-33
T1 sequence (P36400 126-341, stated change not applied): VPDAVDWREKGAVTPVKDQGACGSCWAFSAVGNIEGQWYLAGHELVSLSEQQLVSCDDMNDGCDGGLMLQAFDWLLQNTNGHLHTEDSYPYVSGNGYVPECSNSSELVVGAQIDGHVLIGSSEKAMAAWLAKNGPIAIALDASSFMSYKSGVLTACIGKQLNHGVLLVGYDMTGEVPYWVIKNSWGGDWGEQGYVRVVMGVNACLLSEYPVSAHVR
Procedure: The concentration of the active recombinant CPB expressed in Pichia pastoris supernatant was determined by active site titration with N-(trans-Epoxysuccinyl)-L-leucine 4-guanidinobutylamide E-64 (CalBiochem) that was found 1 μM. The active enzyme represented about 80% of the total recombinant enzyme.
Compounds were dissolved in DMSO to a final concentration of 20 μM. The assays were performed in dark 96 well-plates, containing 200 μL of 100 mM sodium acetate buffer (pH 5.5), 200 mM NaCl, 0.01% Triton-X100, 2 nM enzyme, various concentrations of inhibitor, and 5 μM of the substrate Z-FR-AMC (Calbiochem). The final concentration of DMSO was 1% (v/v). The enzyme was pre-incubated at 30°C for 2 minutes before the inhibitor was added, waited 2 minutes and after this incubation, the reaction was started by the addition of the substrate, Z-FR-AMC. The fluorescence was monitored at 380 nm excitation and 460 nm emission filters for 2 minutes at 30°C in an Infinite 200 PRO microplate reader (Tecan, Männedorf, Switzerland). The residual activity was measured by the ratio between enzyme + substrate and enzyme + inhibitor + substrate. […] Results were expressed in mean ± standard deviation of two independent replicates using Bioestat Software.

[3] = test system: L. infantum intracellular amastigotes; experiment: Anti-amastigote activity in infected murine peritoneal macrophages; type: cell-based; conditions: Leishmania infantum, Peritoneal macrophage, 24 h, read-out: EC50 - Effective Concentration that kills 50% of L. infantum amastigote forms
Procedure: (§1) The antileishmanial activity against L. infantum intracellular amastigotes, according to the following methodology. […] Were used infected macrophages as negative control and amphotericin B as the positive control.
(§2) After incubation, cells were fixed with methanol and Giemsa stained. The effective concentration to 50% amastigotes death (EC) was obtained by counting 100 macrophages in duplicate, in two independent experiments. The values were obtained by non-linear regression on Bioestat® software, and results were expressed in mean ± standard deviation.

[4] = test system: L. infantum; experiment: In vivo parasite load (LDU index) in L. infantum-infected BALB/c mice; conditions: oral, twice a day for five days; for reduction of parasite burden in liver and spleen: 7.7 mg/kg/day
Procedure: To evaluate the in vivo antileishmanial efficacy of compound 4f, male BALB/c mice, 20 ± 4 g, 6 weeks-old (CEMIB-UNICAMP) were intraperitoneally inoculated with 100 μL (1x10^8 parasites) of infective promastigotes of L. infantum (MHOM/MA/67/ITMAP-263) at the stationary phase. After nine days post-infection, the animals were treated by oral gavage (100 μL per dose) twice daily for 5 days with a 12h interval between doses according to the dosages described below, and euthanized. […] Work solutions were daily prepared in PBS. Negative controls correspond to infected and non-treated mice. As a positive control, a group of mice received 7.7 mg/kg/day of miltefosine, and a group of uninfected and untreated mice (healthy animals) was used for the analysis. The compound and miltefosine were orally administered twice a day for five days. After treatment, the animals were euthanized and the treatment efficacy was assessed by measuring the parasite burden of the infected animals using the LDU index.
LDU index. After the euthanasia, mice´s liver and spleen were collected for parasite quantification. Tissues impression onto microscopy slides were made, followed by Giemsa-staining and examining under optical microscopy. The corresponding number of amastigotes per 1,000 nucleated cells/organ weight was expressed as LDU index according to Stauber (1958), Sousa-Batista (2018), and Kwofie (2019).

[5] = Toxicity for mice: plasma biochemical markers; type: in vivo, BALB/c mice; conditions: for plasma creatinine: any group; for plasma creatinine / plasma total bilirubin levels: end of treatment; for plasma levels of AST, ALP, ALT, and creatinine: treated vs healthy groups; for plasma total bilirubin levels: treated vs infected untreated mice
Procedure: Toxicity for mice assays. The blood was collected in heparinized tubes and immediately centrifuged at 700×g for 10 min at 25°C to obtain plasma. Plasma levels of aspartate (AST), and alanine (ALT) transferases, alkaline phosphatase (ALP), creatinine, urea, and total bilirubin were determined at the end of treatment using commercial kits (Labtest Diagnóstica S.A., Brazil). The assays were performed according to Velasquez et al. (2017) and the data are expressed as average ± SEM. The statistical differences between groups were evaluated using a one-way analysis of variance, followed by the Student-Newman-Keuls multiple comparison test using GraphPad Prism software. Differences were considered significant when P values were […].

[6] = biological target: T1, recombinant Leishmania cysteine protease LmCPB2.8ΔCTE (CPB); conditions: read-out: IC50 - Inhibition of CPB (rCPB2.8); prototype/reference compounds; cited from earlier work
[7] = test system: L. infantum intracellular amastigotes; parameters: method as in PMID 24913171; conditions: prototype/reference compounds, cited from earlier work
[8] = test system: murine peritoneal macrophages; parameters: method as in PMID 24913171; conditions: prototype/reference compounds; cited from earlier work
[9] = test system: L. infantum; parameters: method as in PMID 28866421; conditions: L. infantum-infected hamsters, cited from earlier work
[10] = Anti-amastigote activity in infected murine peritoneal macrophages; type: cell-based, L. infantum; conditions: Swiss, mouse; CC50 macrophages / EC50 L. infantum amastigotes; read-out: SI - Selective Index (CC50/EC50)
Procedure: as §1, §2

Structure (SMILES) | % NO2- (mol/mol) [1] | IC50 [2] [µM] | EC50 [3] [µM] | melting point [°C] | selectivity ratio at 24 h [10] | other results
NC(=O)N/N=C/c1ccc(Oc2no[n+]([O-])c2-c2ccccc2)cc1 [Compound 4f, (E)-4-(4-((2-carbamoylhydrazono)methyl)phenoxy)-3-phenyl-1,2,5-oxadiazole 2-oxide] | 9.1 ± 0.7 % | 4.5 ± 0.1 | 3.6 ± 0.1 |  |  | parasite reduction ([4]; 2.56 mg/kg/day): 77%; reduction of parasite burden in liver and spleen [4]: 90% and ~ 90%; plasma creatinine [5]: no alterations; plasma levels of AST, ALP, ALT, and creatinine [5]: similar; plasma total bilirubin levels [5]: no significant alterations; side effect (biochemical markers) ([5]; up to the highest dose 7.7 mg/kg/day): without causing any evident side effect
Nc1ccc(C(=O)N/N=C/c2ccc(O)cc2)cc1 [Compound 14e, (E)-4-amino-N’-(4-hydroxybenzylidene)benzohydrazide] |  | 1.2 ± 0.1 | > 10 | 275 to 276 |  | 
NC(=O)c1c(COc2ccc(/C=N/NC(=O)c3ccc(N)cc3)cc2)no[n+]1[O-] [Compound 4j, (E)-4-((4-((2-(4-aminobenzoyl)hydrazono)methyl)phenoxy)methyl)-3-carbamoyl-1,2,5-oxadiazole 2-oxide] | 12.7 ± 0.8 % | 11.1 ± 0.1 | > 10 | 209 to 214 |  | 
NC(=O)N/N=C/c1ccc(OCc2no[n+]([O-])c2C(N)=O)cc1 [Compound 4n, (E)-3-carbamoyl-4-((4-((2-carbamoylhydrazono)methyl)phenoxy)methyl)-1,2,5-oxadiazole 2-oxide] | 12.0 ± 1.4 % | 13.7 ± 1.8 | > 10 | 228 to 230 |  | 
O=C(N/N=C/c1ccc(Oc2no[n+]([O-])c2S(=O)(=O)c2ccccc2)cc1)c1cccc(O)c1 [Lapdesf14e, (E)-4-(4-((2-(3-hydroxybenzoyl)hydrazono)methyl)phenoxy)-3-(phenylsulfonyl)-1,2,5-oxadiazole 2-oxide] | 26% and 26.0 ± 1.6 % |  |  |  |  | IC50 [6]: 3.1 ± 0.4 µM; SI - Selective Index (CC50/EC50) [7]: 66.4; EC50 ([7]; read-out: EC50 L. infantum amastigote forms): 3.1 ± 0.1 µM; CC50 [8]: 208.3 ± 0.2 µM; decrease of parasite load ([9]; 15 days, intraperitoneal): 50%; reduction of parasite load in the liver [9]: 54.2%; reduction of parasite load in the spleen [9]: 49.9%; toxic effects [9]: without toxic effects
CCCCCCCCCCCCCCCCOP(=O)([O-])OCC[N+](C)(C)C [miltefosine, reference compound] |  |  |  |  |  | reduction of parasite burden in liver and spleen [4]: ~ 90%; plasma creatinine [5]: no alterations; plasma levels of AST, ALP, ALT, and creatinine [5]: similar; plasma total bilirubin levels [5]: no significant alterations
CC(C)(C)c1ccc(C(=O)N/N=C/c2ccc(Oc3no[n+]([O-])c3-c3ccccc3)cc2)cc1 [Compound 4e, (E)-4-(4-((2-(4-(tert-butyl)benzoyl)hydrazono)methyl)phenoxy)-3-phenyl-1,2,5-oxadiazole 2-oxide] | 8.8 ± 0.7 % | 0.8 ± 0.1 | 0.6 ± 0.1 |  | > 833 | 
O=C(N/N=C/c1ccc(O)cc1)c1ccc([N+](=O)[O-])cc1 [Compound 14f, (E)-N’-(4-hydroxybenzylidene)-4-nitrobenzohydrazide] |  | 4 ± 0.1 | > 10 | 266 to 268 |  | 
O=C(N/N=C/c1ccc(O)cc1)c1ccccc1 [Compound 14c, (E)-N’-(4-hydroxybenzylidene)benzohydrazide] |  | 2 ± 0.3 | > 10 | 244 to 245 |  | 
Nc1ccc(C(=O)N/N=C/c2ccc(Oc3no[n+]([O-])c3-c3ccccc3)cc2)cc1 [Compound 4c, (E)-4-(4-((2-(4-aminobenzoyl)hydrazono)methyl)phenoxy)-3-phenyl-1,2,5-oxadiazole 2-oxide] | 9.3 ± 0.8 % | 2 ± 0.1 | 7.2 ± 0.2 |  | 17 | 
NC(=O)N/N=C/c1ccc(O)cc1 [Compound 14a, (E)-2-(4-hydroxybenzylidene)hydrazine-1-carboxamide] |  | 2 ± 0.1 | > 10 | 224 to 226 |  | 
NC(=O)c1c(COc2ccc(/C=N/NC(=O)c3ccc(O)cc3)cc2)no[n+]1[O-] [Compound 4i, (E)-3-carbamoyl-4-((4-((2-(4-hydroxybenzoyl)hydrazono)methyl)phenoxy)methyl)-1,2,5-oxadiazole 2-oxide] | 12.3 ± 0.9 % | 5.7 ± 0.4 | > 10 | 201 to 203 |  | 
NC(=S)N/N=C/c1ccc(Oc2no[n+]([O-])c2-c2ccccc2)cc1 [Compound 4g, (E)-4-(4-((2-carbamothioylhydrazono)methyl)phenoxy)-3-phenyl-1,2,5-oxadiazole 2-oxide] | 9.0 ± 0.6 % | 6.5 ± 1 | 2.2 ± 0.3 |  | > 227 | 
O=C(N/N=C/c1ccc(Oc2no[n+]([O-])c2-c2ccccc2)cc1)c1ccc([N+](=O)[O-])cc1 [Compound 4d, (E)-4-(4-((2-(4-nitrobenzoyl)hydrazono)methyl)phenoxy)-3-phenyl-1,2,5-oxadiazole 2-oxide] | 8.6 ± 0.8 % | 1.8 ± 0.1 | 3.9 ± 0.4 |  | > 128 | 
O=C(N/N=C/c1ccc(Oc2no[n+]([O-])c2-c2ccccc2)cc1)c1ccc(O)cc1 [Compound 4b, (E)-4-(4-((2-(4-hydroxybenzoyl)hydrazono)methyl)phenoxy)-3-phenyl-1,2,5-oxadiazole 2-oxide] | 8.8 ± 0.6 % | 3.2 ± 0.3 | 3.1 ± 0.2 |  | 54 | 
NC(=O)c1c(COc2ccc(/C=N/NC(N)=S)cc2)no[n+]1[O-] [Compound 4o, (E)-4-((4-((2-carbamothioylhydrazono)methyl)phenoxy)methyl)-3-carbamoyl-1,2,5-oxadiazole 2-oxide] | 11.8 ± 1.2 % | > 20 | > 10 | 232 to 234 |  | 
